Laboratory results as given in PubChem BioAssay AID2060511 (Molecular Pharmacology Branch, DTP, NCI, 2025).

Tested on: 422866-222-R5-J1-PDC spheroids with HUVEC/MSC, viability
Assay: Anticancer human tumor 422866-222-R5-J1-PDC patient-derived pancreatic adenocarcinoma cell line growth inhibition [GQUAD]
Settings: for IC50: curve of first compound; for viability, T/C: stronger effect = lower value
In short: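 Viability of tumor cells grown as complex spheroids with endothelial and stromal cells, exposed to drug combinations. Top concentration at or near clinical Cmax (else 10 microM), diluted in half-log increments.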

[1] = second compound 0.0316 µM, first compound 0.0316 µM
[2] = second compound 0.0316 µM, first compound 0.1 µM
[3] = second compound 0.0316 µM, first compound 0.316 µM
[4] = second compound 0.0316 µM, first compound 1 µM
[5] = second compound 0.0316 µM, first compound 3.16 µM
[6] = second compound 0.0316 µM, first compound 10 µM
[7] = second compound 0.1 µM, first compound 0.0316 µM
[8] = second compound 0.1 µM, first compound 0.1 µM
[9] = second compound 0.1 µM, first compound 0.316 µM
[10] = second compound 0.1 µM, first compound 1 µM
[11] = second compound 0.1 µM, first compound 3.16 µM
[12] = second compound 0.1 µM, first compound 10 µM
[13] = second compound 0.316 µM, first compound 0.0316 µM
[14] = second compound 0.316 µM, first compound 0.1 µM
[15] = second compound 0.316 µM, first compound 0.316 µM
[16] = second compound 0.316 µM, first compound 1 µM
[17] = second compound 0.316 µM, first compound 3.16 µM
[18] = second compound 0.316 µM, first compound 10 µM
[19] = second compound 1 µM, first compound 0.0316 µM
[20] = second compound 1 µM, first compound 0.1 µM
[21] = second compound 1 µM, first compound 0.316 µM
[22] = second compound 1 µM, first compound 1 µM
[23] = second compound 1 µM, first compound 3.16 µM
[24] = second compound 1 µM, first compound 10 µM
[25] = second compound 3.16 µM, first compound 0.0316 µM
[26] = second compound 3.16 µM, first compound 0.1 µM
[27] = second compound 3.16 µM, first compound 0.316 µM
[28] = second compound 3.16 µM, first compound 1 µM
[29] = second compound 3.16 µM, first compound 3.16 µM
[30] = second compound 3.16 µM, first compound 10 µM
[31] = second compound 10 µM, first compound 0.0316 µM
[32] = second compound 10 µM, first compound 0.1 µM
[33] = second compound 10 µM, first compound 0.316 µM
[34] = second compound 10 µM, first compound 1 µM
[35] = second compound 10 µM, first compound 3.16 µM
[36] = second compound 10 µM, first compound 10 µM
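Further: spheroids exposed to compounds for seven days before reading.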
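Wherever viability, T/C is given: percent viability relative to DMSO vehicle control taken as 100%.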

## COc1ncnc(C2CC2)c1-c1ncc2cnn(Cc3ccc(-c4nc(C(F)(F)F)cn4C(C)C)cc3)c2n1 + Cc1cnc(CNC(=O)c2c(=O)c3ccc(N4CCCN(C)CC4)nc3n3c2sc2ccccc23)cn1
Second compound 0.0316 µM
  IC50: > 10 µM
Second compound 0.1 µM
  IC50: > 10 µM
Second compound 0.316 µM
  IC50: > 10 µM
Second compound 1 µM
  IC50: > 10 µM
Second compound 3.16 µM
  IC50: > 10 µM
Second compound 10 µM
  IC50: > 10 µM
[1]
  viability, T/C: 86.6%
[2]
  viability, T/C: 79.2%
[3]
  viability, T/C: 84.4%
[4]
  viability, T/C: 74.3%
[5]
  viability, T/C: 91.5%
[6]
  viability, T/C: 93.6%
[7]
  viability, T/C: 99.4%
[8]
  viability, T/C: 74.7%
[9]
  viability, T/C: 82.9%
[10]
  viability, T/C: 88.8%
[11]
  viability, T/C: 101%
[12]
  viability, T/C: 86.5%
[13]
  viability, T/C: 84.4%
[14]
  viability, T/C: 72.4%
[15]
  viability, T/C: 78.8%
[16]
  viability, T/C: 80.4%
[17]
  viability, T/C: 93.2%
[18]
  viability, T/C: 94%
[19]
  viability, T/C: 63%
[20]
  viability, T/C: 80.1%
[21]
  viability, T/C: 84.3%
[22]
  viability, T/C: 85.4%
[23]
  viability, T/C: 82.3%
[24]
  viability, T/C: 98.8%
[25]
  viability, T/C: 71.8%
[26]
  viability, T/C: 80.4%
[27]
  viability, T/C: 82.7%
[28]
  viability, T/C: 71.9%
[29]
  viability, T/C: 98.1%
[30]
  viability, T/C: 98%
[31]
  viability, T/C: 70.3%
[32]
  viability, T/C: 80.7%
[33]
  viability, T/C: 88.6%
[34]
  viability, T/C: 72.8%
[35]
  viability, T/C: 84.7%
[36]
  viability, T/C: 88.2%

## Cc1[nH]c2ccccc2c1CCNCc1ccc(/C=C/C(=O)NO)cc1 + Cc1cnc(CNC(=O)c2c(=O)c3ccc(N4CCCN(C)CC4)nc3n3c2sc2ccccc23)cn1
Second compound 0.0316 µM
  IC50: > 0.316 µM
Second compound 0.1 µM
  IC50: 0.277 µM
Second compound 0.316 µM
  IC50: > 0.316 µM
Second compound 1 µM
  IC50: > 0.316 µM
Second compound 3.16 µM
  IC50: 0.269 µM
Second compound 10 µM
  IC50: 0.227 µM
Second compound 0.0316 µM, first compound 0.000999 µM
  viability, T/C: 99.8%
Second compound 0.0316 µM, first compound 0.00316 µM
  viability, T/C: 94.7%
Second compound 0.0316 µM, first compound 0.00999 µM
  viability, T/C: 83.5%
[1]
  viability, T/C: 65.8%
Second compound 0.0316 µM, first compound 0.0999 µM
  viability, T/C: 77.8%
[3]
  viability, T/C: 46.8%
Second compound 0.1 µM, first compound 0.000999 µM
  viability, T/C: 91.6%
Second compound 0.1 µM, first compound 0.00316 µM
  viability, T/C: 86.7%
Second compound 0.1 µM, first compound 0.00999 µM
  viability, T/C: 83.4%
[7]
  viability, T/C: 66.6%
Second compound 0.1 µM, first compound 0.0999 µM
  viability, T/C: 68%
[9]
  viability, T/C: 46.6%
Second compound 0.316 µM, first compound 0.000999 µM
  viability, T/C: 79.5%
Second compound 0.316 µM, first compound 0.00316 µM
  viability, T/C: 73.9%
Second compound 0.316 µM, first compound 0.00999 µM
  viability, T/C: 80.3%
[13]
  viability, T/C: 78.8%
Second compound 0.316 µM, first compound 0.0999 µM
  viability, T/C: 67.4%
[15]
  viability, T/C: 55.9%
Second compound 1 µM, first compound 0.000999 µM
  viability, T/C: 75.2%
Second compound 1 µM, first compound 0.00316 µM
  viability, T/C: 72.6%
Second compound 1 µM, first compound 0.00999 µM
  viability, T/C: 74.3%
[19]
  viability, T/C: 62.6%
Second compound 1 µM, first compound 0.0999 µM
  viability, T/C: 70.4%
[21]
  viability, T/C: 63.7%
Second compound 3.16 µM, first compound 0.000999 µM
  viability, T/C: 73.8%
Second compound 3.16 µM, first compound 0.00316 µM
  viability, T/C: 78.6%
Second compound 3.16 µM, first compound 0.00999 µM
  viability, T/C: 87.4%
[25]
  viability, T/C: 78.8%
Second compound 3.16 µM, first compound 0.0999 µM
  viability, T/C: 76.1%
[27]
  viability, T/C: 45.8%
Second compound 10 µM, first compound 0.000999 µM
  viability, T/C: 75.2%
Second compound 10 µM, first compound 0.00316 µM
  viability, T/C: 67.8%
Second compound 10 µM, first compound 0.00999 µM
  viability, T/C: 68.7%
[31]
  viability, T/C: 84.5%
Second compound 10 µM, first compound 0.0999 µM
  viability, T/C: 70.3%
[33]
  viability, T/C: 41.4%

## O=C(NO)c1cnc(N2CCN(S(=O)(=O)c3ccc4ccccc4c3)CC2)nc1 + Cc1cnc(CNC(=O)c2c(=O)c3ccc(N4CCCN(C)CC4)nc3n3c2sc2ccccc23)cn1
Second compound 0.0316 µM
  IC50: 0.824 µM
Second compound 0.1 µM
  IC50: 1.64 µM
Second compound 0.316 µM
  IC50: 1.65 µM
Second compound 1 µM
  IC50: 1.73 µM
Second compound 3.16 µM
  IC50: 1.46 µM
Second compound 10 µM
  IC50: 0.574 µM
[1]
  viability, T/C: 89.8%
[2]
  viability, T/C: 75.8%
[3]
  viability, T/C: 60.2%
[4]
  viability, T/C: 43%
[5]
  viability, T/C: 42%
[6]
  viability, T/C: 2.99%
[7]
  viability, T/C: 86.4%
[8]
  viability, T/C: 75.1%
[9]
  viability, T/C: 93.6%
[10]
  viability, T/C: 49.1%
[11]
  viability, T/C: 40.2%
[12]
  viability, T/C: 5.96%
[13]
  viability, T/C: 90.9%
[14]
  viability, T/C: 84%
[15]
  viability, T/C: 85.9%
[16]
  viability, T/C: 52.7%
[17]
  viability, T/C: 39.9%
[18]
  viability, T/C: 6.44%
[19]
  viability, T/C: 71.9%
[20]
  viability, T/C: 86.8%
[21]
  viability, T/C: 82.2%
[22]
  viability, T/C: 63.1%
[23]
  viability, T/C: 33.5%
[24]
  viability, T/C: 4.12%
[25]
  viability, T/C: 70.5%
[26]
  viability, T/C: 91.8%
[27]
  viability, T/C: 63.5%
[28]
  viability, T/C: 56.9%
[29]
  viability, T/C: 35.7%
[30]
  viability, T/C: 0.26%
[31]
  viability, T/C: 72.3%
[32]
  viability, T/C: 74.6%
[33]
  viability, T/C: 65.1%
[34]
  viability, T/C: 33.4%
[35]
  viability, T/C: 21%
[36]
  viability, T/C: 0.26%
